Reference: publication PMC9658513, “Discovery of Compounds That Selectively Repress the Amyloidogenic Processing of the Amyloid Precursor Protein: Design, Synthesis and Pharmacological Evaluation of Diphenylpyrazoles” (International Journal of Molecular Sciences, 2022)
Read-outs that look alike come from different tables or passages of the source.

What was measured:
Type in all cases: cell-based, human
[1] = system: αCTF (APP carboxy-terminal fragment); test: αCTF level by Western blotting in SY5Y-APP^WT cells; settings: for EC (20-fold increase): concentration increasing αCTF 20-fold vs untreated control, SY5Y-APP^WT cells, read-out: αCTF (C20); for C20 for CTFα and AICD: CTFα and AICD together
How it was run: (§1)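 SH-SY5Y cells stably expressing human wild-type APP695 treated with compounds for 24 h at 37 °C. αCTF and AICD measured by Western blot of lysates (10 µg protein, 12% Bis-Tris gels) as band intensity; C20 is concentration raising these fragments 20-fold over control.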

[2] = system: AICD (APP intracellular domain); test: AICD level by Western blotting in SY5Y-APP^WT cells; settings: concentration increasing AICD 20-fold vs untreated control, read-out: AICD (C20)
How it was run: as §1

[3] = system: Aβ1–42 peptide secretion; test: Aβ1–42 secretion in cell medium by ELISA; settings: SY5Y-APP^WT cells, 24 h treatment, mean ± SD of at least three experiments in triplicate
How it was run: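 SY5Y-APP^WT cells (SH-SY5Y human neuroblastoma stably expressing human wild-type APP695) were treated with compounds for 24 h in supplemented DMEM at 37 °C. Secreted Aβ1–40 and Aβ1–42 were quantified in the collected, centrifuged conditioned medium by ELISA, in pg/mL.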

Compound | IC50 ([3]; Homo sapiens) [nM] | IC50 [3] [nM] | EC (20-fold increase) ([1]; Homo sapiens) [µM] | EC (20-fold increase) ([2]; Homo sapiens) [µM] | C20 for CTFα and AICD [1] | EC (20-fold increase) [1] [µM] | EC (20-fold increase) [2] [µM]
Cc1cn(-c2cccc(CN(C)C)c2)nc1-c1cccc(CN(C)CCCN(C)C)c1 [Compound 70, N′-[[3-[1-[3-(Dimethylaminomethyl)phenyl]-4-methyl-pyrazol-3-yl]phenyl] Methyl]-N,N,N′-trimethyl-propane-1,3-diamine] | 2100 ± 100 |  | 1.3 | 1.7 |  |  | 
Cc1cn(-c2cccc(CO)c2)nc1-c1ccc(CN(C)CCCN(C)C)cc1 [Compound 57, (3-{3-[4-({[3-(Dimethylamino)propyl](methyl)amino}methyl)phenyl]-4-methyl-1H-pyrazol-1-yl}phenyl)methanol] | 3500 ± 800 |  | > 10 | 8.5 |  |  | 
Cc1cn(-c2cccc(CN3CCN(C)CC3)c2)nc1-c1cccc(CN(C)CCCN(C)C)c1 [Compound 71, N,N,N′-Trimethyl-N′-[[3-[4-methyl-1-[3-[(4-methylpiperazin-1-yl)methyl]phenyl]pyrazol-3-yl]phenyl]methyl]propane-1,3-diamine] | 1700 ± 100 |  | 0.7 | 1 | around 1 µM |  | 
CN(C)CCCc1ccc(-c2nn(-c3ccc(CN(C)C)cc3)cc2CN(C)C)cc1 [Compound 24, 3-[4-[4-(Dimethylaminomethyl)-1-[4-(dimethylaminomethyl)phenyl] Pyrazol-3-yl]phenyl]-N,N-dimethyl-propan-1-amine] | 2500 ± 200 |  | 1.6 | 2.2 |  |  | 

Second part, led by results:

IC50 ([3]; Homo sapiens) [nM] | IC50 [3] [nM] | Compound | EC (20-fold increase) ([1]; Homo sapiens) [µM] | EC (20-fold increase) ([2]; Homo sapiens) [µM] | C20 for CTFα and AICD [1] | EC (20-fold increase) [1] [µM] | EC (20-fold increase) [2] [µM]
2100 ± 500 |  | Cc1cn(-c2cccc(CN(C)C)c2)nc1-c1ccc(CN(C)CCCN(C)C)cc1 [Compound 67, {[4-(1-{3-[(Dimethylamino)methyl]phenyl}-4-methyl-1H-pyrazol-3-yl)phenyl]methyl} [3-(Dimethylamino)propyl]methylamine] | 1.4 | 1.2 | around 1 µM |  | 
 | 9700 ± 1200 | N′-[[4-[4-[3-(Dimethylamino)propyl]-3-[4-[3-(dimethylamino)propyl]phenyl] Pyrazol-1-yl]phenyl]methyl]-N,N,N′-trimethyl-propane-1,3-diamine [Compound 33] |  |  |  | 6.1 | 8.9
2100 ± 400 |  | Cc1cn(-c2cccc(CN3CCN(C)CC3)c2)nc1-c1cccc(CN(C)C)c1 [Compound 65, N,N-dimethyl-1-[3-[4-methyl-1-[3-[(4-methylpiperazin-1-yl)methyl]phenyl]pyrazol-3-yl]phenyl]methanamine] | 1.7 | 2.8 |  |  | 
